Test results from patent publication US11866431B2, “Bicyclic compounds” (Vivace Therapeutics, Inc., priority 2018, dated 2024).
Like-named read-outs stand apart in the source and are kept apart here.

System: 8XTBD luciferase reporter (YAP reporter) in HEK293T cells
Assay: YAP Reporter Assay
Assay type: cell-based
Conditions: Homo sapiens, HEK-293T
In short: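 Dual-luciferase read-out after 24 h compound exposure at 37° C, 5% CO2; IC50 and maximum inhibition given separately for 8XTBD-firefly and TK-renilla signals. Stable HEK293T reporter cells, 3×10^3/well, received 10-point 1:3 series starting 3 μM final, in quadruplicate.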

[1] = HEK293T cells stably transfected with 8XTBD luciferase reporter and pRLTK, 24-hr incubation, top concentration 3 μM, read-out: Firefly Luciferase IC50
[2] = 24 h, read-out: Firefly Luciferase IC50 (μM)

Structure (SMILES)	IC50 [1]	IC50 [2]
O=C(NC(CCO)CCO)c1ccc2c(-c3ccc(C(F)(F)F)cc3)cccc2c1 [Compound 161, N-(1,5-dihydroxypentan-3-yl)-5-(4-(trifluoromethyl)phenyl)-2-naphthamide]	0.1 to 1 µM	–
CS(=O)(=O)NC(=O)c1cnc2c(-c3ccc(C(F)(F)F)cc3)cc(Cl)c(Cl)c2c1 [Compound 96, 5,6-dichloro-N-(methylsulfonyl)-8-(4-(trifluoromethyl)phenyl)quinoline-3-carboxamide]	0.1 to 1 µM	–
C[C@H](NC(=O)c1ccc2c(-c3ccc(C(F)(F)F)cc3)cccc2c1)C1(O)CNC1 [Compound 155, (S)—N-(1-(3-hydroxyazetidin-3-yl)ethyl)-5-(4-(trifluoromethyl)phenyl)-2-naphthamide]	0.1 to 1 µM	–
C[C@@H](NC(=O)c1ccc2c(-c3ccc(C(F)(F)F)cc3)cccc2c1)C(N)=O [Compound 258, (R)—N-(1-amino-1-oxopropan-2-yl)-5-(4-(trifluoromethyl)phenyl)-2-naphthamide]	0.1 to 1 µM	–
Cn1cc(-c2ccc(C(F)(F)F)cc2)c2ccc(C(=O)O)cc2c1=O [Compound 337, 2-methyl-1-oxo-4-[4-(trifluoromethyl)phenyl]isoquinoline-7-carboxylic Acid]	0.1 to 1 µM	–
CC(C)NC(=O)c1ccc2c(-c3ccc(C(F)(F)F)cc3)cc(S(C)(=O)=O)cc2c1 [Compound 46, N-isopropyl-7-methylsulfonyl-5-[4-(trifluoromethyl)phenyl]naphthalene-2-carboxamide]	< 0.1 µM	–
COc1cc(-c2ccc(C(F)(F)F)cc2)c2ncc(C(=O)NC(C)C)cc2c1 [Compound 97, N-isopropyl-6-methoxy-8-[4-(trifluoromethyl)phenyl]quinoline-3-carboxamide]	< 0.1 µM	–
C[C@@H](NC(=O)c1ccc2c(-c3ccc(C(F)(F)F)cc3)cccc2c1)C1CN(C)C1 [Compound 153, N-[(1R)-1-(1-methylazetidin-3-yl)ethyl]-5-[4-(trifluoromethyl)phenyl]naphthalene-2-carboxamide]	0.1 to 1 µM	–
COc1cc(-c2ccc(C(F)(F)F)cc2F)c2ncc(C(=O)O)cc2c1 [Compound 321, 8-(2-fluoro-4-(trifluoromethyl)phenyl)-6-methoxyquinoline-3-carboxylic Acid]	< 0.1 µM	–
CC(C)(CO)NC(=O)c1ccc2c(-c3ccc(C(F)(F)F)cc3)cccc2c1 [Compound 263, N-(1-hydroxy-2-methylpropan-2-yl)-5-(4-(trifluoromethyl)phenyl)-2-naphthamide]	0.1 to 1 µM	–
C[C@@H](CCO)NC(=O)c1ccc2c(-c3ccc(C(F)(F)F)cc3)cccc2c1 [Compound 166, N-[(1S)-3-hydroxy-1-methyl-propyl]-5-[4-(trifluoromethyl)phenyl]naphthalene-2-carboxamide]	< 0.1 µM	–
CC(C)NC(=O)c1ccc2c(-c3ccc(C(F)(F)F)cc3)cc(N(C)S(C)(=O)=O)cc2c1 [Compound 53, N-isopropyl-7-(N-methylmethylsulfonamido)-5-(4-(trifluoromethyl)phenyl)-2-naphthamide]	0.1 to 1 µM	–
CC(C)NC(=O)c1ccc2c(-c3ccc(C(F)(F)F)cc3)cc3scnc3c2c1 [Compound 68, N-isopropyl-5-(4-(trifluoromethyl)phenyl)naphtho[1,2-d]thiazole-8-carboxamide]	–	< 0.1 µM
CSc1cc(-c2ccc(C(F)(F)F)cc2)c2ccc(C(=O)NC(C)C)cc2c1 [Compound 42, N-isopropyl-7-(methylthio)-5-(4-(trifluoromethyl)phenyl)-2-naphthamide]	< 0.1 µM	–
CC(=O)Nc1cccc(CNC(=O)c2ccc3c(-c4ccc(C(F)(F)F)cc4)cccc3c2)c1 [Compound 237, N-(3-acetamidobenzyl)-5-(4-(trifluoromethyl)phenyl)-2-naphthamide]	< 0.1 µM	–
CC(C)NC(=O)c1cnc2c(-c3ccc(C(F)(F)F)cc3)cc(F)c(F)c2c1 [Compound 72, 5,6-Difluoro-N-isopropyl-8-(4-(trifluoromethyl)phenyl)quinoline-3-carboxamide]	–	< 0.1 µM
C[C@@H](NC(=O)c1ccc2c(-c3ccc(C(F)(F)F)cc3)cccc2c1)c1ncc[nH]1 [Compound 242, (R)—N-(1-(1H-imidazol-2-yl)ethyl)-5-(4-(trifluoromethyl)phenyl)-2-naphthamide]	0.1 to 1 µM	–
CC#C[C@H](C)NC(=O)c1ccc2c(-c3ccc(C(F)(F)F)cc3)cccc2c1 [Compound 272, (S)—N-(pent-3-yn-2-yl)-5-(4-(trifluoromethyl)phenyl)-2-naphthamide]	< 0.1 µM	–
C[C@@H](CN(C)C)NC(=O)c1ccc2c(-c3ccc(C(F)(F)F)cc3)cccc2c1 [Compound 64, (S)—N-(1-(dimethylamino)propan-2-yl)-5-(4-(trifluoromethyl)phenyl)-2-naphthamide]	1 to 3 µM	–
C[C@H](NC(=O)c1ccc2c(-c3ccc(C(F)(F)F)cc3)cccc2n1)c1ccccn1 [Compound 244, (S)—N-(1-(Pyridin-2-yl)ethyl)-5-(4-(trifluoromethyl)phenyl)quinoline-2-carboxamide]	< 0.1 µM	–

Structure (SMILES)	IC50 [1]	IC50 [2]
CC(=O)Nc1cc(-c2ccc(C(F)(F)F)cc2)c2ccc(C(=O)NC(C)C)cc2c1 [Compound 48, 7-acetamido-N-isopropyl-5-(4-(trifluoromethyl)phenyl)-2-naphthamide]	0.1 to 1 µM	–
[N-]=[N+]=NCCNC(=O)c1ccc2c(-c3ccc(C(F)(F)F)cc3)cccc2c1 [Compound 261, N-(2-azidoethyl)-5-(4-(trifluoromethyl)phenyl)-2-naphthamide]	< 0.1 µM	–
CS(=O)(=O)NC(=O)c1ccc2c(-c3ccc(C(F)(F)F)cc3)cccc2c1 [Compound 2, N-(methylsulfonyl)-5-(4-(trifluoromethyl)phenyl)-2-naphthamide]	< 0.1 µM	–
C[C@@H](NC(=O)c1ccc2c(-c3ccc(C(F)(F)F)cc3)cccc2c1)c1ccccc1Cl [Compound 206, (R)—N-(1-(2-chlorophenyl)ethyl)-5-(4-(trifluoromethyl)phenyl)-2-naphthamide]	< 0.1 µM	–
O=C(NCCO)c1ccc2c(-c3ccc(C(F)(F)F)cc3)cccc2c1 [Compound 86, N-(2-hydroxyethyl)-5-(4-(trifluoromethyl)phenyl)-2-naphthamide]	< 0.1 µM	–
O=C(N[C@H](CO)c1ccccn1)c1ccc2c(-c3ccc(C(F)(F)F)cc3)cccc2c1 [Compound 162, N-[(1S)-2-hydroxy-1-(2-pyridyl)ethyl]-5-[4-(trifluoromethyl)phenyl]naphthalene-2-carboxamide]	1 to 3 µM	–
CNS(=O)(=O)c1ccc2c(-c3ccc(C(F)(F)F)cc3)cccc2c1 [Compound 3, N-methyl-5-(4-(trifluoromethyl)phenyl)naphthalene-2-sulfonamide]	< 0.1 µM	–
O=C(N[C@H](CCO)c1ccccn1)c1ccc2c(-c3ccc(C(F)(F)F)cc3)cccc2c1 [Compound 165, (R)—N-(3-hydroxy-1-(pyridin-2-yl)propyl)-5-(4-(trifluoromethyl)phenyl)-2-naphthamide]	1 to 3 µM	–
C[C@H](NC(=O)c1ccc2c(-c3ccc(C(F)(F)F)cc3)cccc2c1)C(N)=O [Compound 259, (S)—N-(1-amino-1-oxopropan-2-yl)-5-(4-(trifluoromethyl)phenyl)-2-naphthamide]	0.1 to 1 µM	–
COC[C@@H](C)NC(=O)c1cnc2c(-c3ccc(C(F)(F)F)cc3)cccc2c1 [Compound 100, (R)—N-(1-methoxypropan-2-yl)-8-(4-(trifluoromethyl)phenyl)quinoline-3-carboxamide]	0.1 to 1 µM	–
CC(C)NC(=O)c1ccc2c(-c3ccc(C(F)(F)F)cc3)cc(Br)cc2c1 [Compound 32, 7-bromo-N-isopropyl-5-[4-(trifluoromethyl)phenyl]naphthalene-2-carboxamide]	< 0.1 µM	–
C[C@@H](NC(=O)c1ccc2c(-c3ccc(C(F)(F)F)cc3)cccc2c1)c1c[nH]cn1 [Compound 277, (R)—N-(1-(1H-imidazol-4-yl)ethyl)-5-(4-(trifluoromethyl)phenyl)-2-naphthamide]	0.1 to 1 µM	–
C#CCNC(=O)c1ccc2c(-c3ccc(C(F)(F)F)cc3)cccc2c1 [Compound 111, N-(prop-2-yn-1-yl)-5-(4-(trifluoromethyl)phenyl)-2-naphthamide]	< 0.1 µM	–
O=C(NC(CO)c1ccccn1)c1ccc2c(-c3ccc(C(F)(F)F)cc3)cccc2c1 (stereo not shown) [Compound 110, N-(2-hydroxy-1-(pyridin-2-yl)ethyl)-5-(4-(trifluoromethyl)phenyl)-2-naphthamide]	< 0.1 µM	–
C[C@H](CO)NC(=O)c1ccc2c(-c3ccc(C(F)(F)F)cc3)cccc2n1 [Compound 247, (R)—N-(1-Hydroxypropan-2-yl)-5-(4-(trifluoromethyl)phenyl)quinoline-2-carboxamide]	0.1 to 1 µM	–
COCCC(=O)Nc1cccc(CNC(=O)c2ccc3c(-c4ccc(C(F)(F)F)cc4)cccc3c2)c1 [Compound 234, N-(3-(3-methoxypropanamido)benzyl)-5-(4-(trifluoromethyl)phenyl)-2-naphthamide]	< 0.1 µM	–
CC(C)N1CC([C@H](C)NC(=O)c2ccc3c(-c4ccc(C(F)(F)F)cc4)cccc3c2)C1 [Compound 143, N-[(1S)-1-(1-isopropylazetidin-3-yl)ethyl]-5-[4-(trifluoromethyl)phenyl]naphthalene-2-carboxamide]	1 to 3 µM	–
CC(C)NC(=O)c1cnc2c(-c3ccc(C(F)(F)F)cc3)cccc2c1 [Compound 4, N-isopropyl-8-(4-(trifluoromethyl)phenyl)quinoline-3-carboxamide]	< 0.1 µM	–
O=C(NC(CF)CF)c1ccc2c(-c3ccc(C(F)(F)F)cc3)cccc2c1 [Compound 62, N-(1,3-difluoropropan-2-yl)-5-(4-(trifluoromethyl)phenyl)-2-naphthamide]	0.1 to 1 µM	–
CC(=O)N(C)c1ccc(-c2ccc(C(F)(F)F)cc2)c2ccc(C(=O)NC(C)C)cc12 [Compound 30, N-isopropyl-8-(N-methylacetamido)-5-(4-(trifluoromethyl)phenyl)-2-naphthamide]	0.1 to 1 µM	–
